Test results: EP0055702B1, “Antithrombotic treatment” (priority 1980, dated 1982)
Where two headings read alike, the source gives them in different places.

What was measured:
[1] = PTT of coded and various agents, Example 6; assay type: biochemical; details: Table V, coded agents 0.5 mg/ml; Control 43.38
Text: (§1) A variety of agents were coded and evaluated under a code designation. Among these compounds, thiouracil, mercaptosuccinic acid, thiosemicarbazide, phenothiazine and sodium thiosulphate were included, so as to compare sodium bisulphite with certain compounds mentioned in USP 4,148,855.
(§2) After determination of PT and PTT values, the coded compounds were decoded.
(§3) The results are shown in Table V, where mean values of 5 replications in each case are reported. […] This procedure was repeated with some additional compounds on two different days using a different control on each day.

F VIII = target: T1, F VIII (Homo sapiens, UniProt P00451); experiment: Factor VIII assay, Example 4; assay type: biochemical; details: for F VIII: Control 57
T1 construct: from tissue; host or cells: human plasma
T1 sequence (P00451 20-2351): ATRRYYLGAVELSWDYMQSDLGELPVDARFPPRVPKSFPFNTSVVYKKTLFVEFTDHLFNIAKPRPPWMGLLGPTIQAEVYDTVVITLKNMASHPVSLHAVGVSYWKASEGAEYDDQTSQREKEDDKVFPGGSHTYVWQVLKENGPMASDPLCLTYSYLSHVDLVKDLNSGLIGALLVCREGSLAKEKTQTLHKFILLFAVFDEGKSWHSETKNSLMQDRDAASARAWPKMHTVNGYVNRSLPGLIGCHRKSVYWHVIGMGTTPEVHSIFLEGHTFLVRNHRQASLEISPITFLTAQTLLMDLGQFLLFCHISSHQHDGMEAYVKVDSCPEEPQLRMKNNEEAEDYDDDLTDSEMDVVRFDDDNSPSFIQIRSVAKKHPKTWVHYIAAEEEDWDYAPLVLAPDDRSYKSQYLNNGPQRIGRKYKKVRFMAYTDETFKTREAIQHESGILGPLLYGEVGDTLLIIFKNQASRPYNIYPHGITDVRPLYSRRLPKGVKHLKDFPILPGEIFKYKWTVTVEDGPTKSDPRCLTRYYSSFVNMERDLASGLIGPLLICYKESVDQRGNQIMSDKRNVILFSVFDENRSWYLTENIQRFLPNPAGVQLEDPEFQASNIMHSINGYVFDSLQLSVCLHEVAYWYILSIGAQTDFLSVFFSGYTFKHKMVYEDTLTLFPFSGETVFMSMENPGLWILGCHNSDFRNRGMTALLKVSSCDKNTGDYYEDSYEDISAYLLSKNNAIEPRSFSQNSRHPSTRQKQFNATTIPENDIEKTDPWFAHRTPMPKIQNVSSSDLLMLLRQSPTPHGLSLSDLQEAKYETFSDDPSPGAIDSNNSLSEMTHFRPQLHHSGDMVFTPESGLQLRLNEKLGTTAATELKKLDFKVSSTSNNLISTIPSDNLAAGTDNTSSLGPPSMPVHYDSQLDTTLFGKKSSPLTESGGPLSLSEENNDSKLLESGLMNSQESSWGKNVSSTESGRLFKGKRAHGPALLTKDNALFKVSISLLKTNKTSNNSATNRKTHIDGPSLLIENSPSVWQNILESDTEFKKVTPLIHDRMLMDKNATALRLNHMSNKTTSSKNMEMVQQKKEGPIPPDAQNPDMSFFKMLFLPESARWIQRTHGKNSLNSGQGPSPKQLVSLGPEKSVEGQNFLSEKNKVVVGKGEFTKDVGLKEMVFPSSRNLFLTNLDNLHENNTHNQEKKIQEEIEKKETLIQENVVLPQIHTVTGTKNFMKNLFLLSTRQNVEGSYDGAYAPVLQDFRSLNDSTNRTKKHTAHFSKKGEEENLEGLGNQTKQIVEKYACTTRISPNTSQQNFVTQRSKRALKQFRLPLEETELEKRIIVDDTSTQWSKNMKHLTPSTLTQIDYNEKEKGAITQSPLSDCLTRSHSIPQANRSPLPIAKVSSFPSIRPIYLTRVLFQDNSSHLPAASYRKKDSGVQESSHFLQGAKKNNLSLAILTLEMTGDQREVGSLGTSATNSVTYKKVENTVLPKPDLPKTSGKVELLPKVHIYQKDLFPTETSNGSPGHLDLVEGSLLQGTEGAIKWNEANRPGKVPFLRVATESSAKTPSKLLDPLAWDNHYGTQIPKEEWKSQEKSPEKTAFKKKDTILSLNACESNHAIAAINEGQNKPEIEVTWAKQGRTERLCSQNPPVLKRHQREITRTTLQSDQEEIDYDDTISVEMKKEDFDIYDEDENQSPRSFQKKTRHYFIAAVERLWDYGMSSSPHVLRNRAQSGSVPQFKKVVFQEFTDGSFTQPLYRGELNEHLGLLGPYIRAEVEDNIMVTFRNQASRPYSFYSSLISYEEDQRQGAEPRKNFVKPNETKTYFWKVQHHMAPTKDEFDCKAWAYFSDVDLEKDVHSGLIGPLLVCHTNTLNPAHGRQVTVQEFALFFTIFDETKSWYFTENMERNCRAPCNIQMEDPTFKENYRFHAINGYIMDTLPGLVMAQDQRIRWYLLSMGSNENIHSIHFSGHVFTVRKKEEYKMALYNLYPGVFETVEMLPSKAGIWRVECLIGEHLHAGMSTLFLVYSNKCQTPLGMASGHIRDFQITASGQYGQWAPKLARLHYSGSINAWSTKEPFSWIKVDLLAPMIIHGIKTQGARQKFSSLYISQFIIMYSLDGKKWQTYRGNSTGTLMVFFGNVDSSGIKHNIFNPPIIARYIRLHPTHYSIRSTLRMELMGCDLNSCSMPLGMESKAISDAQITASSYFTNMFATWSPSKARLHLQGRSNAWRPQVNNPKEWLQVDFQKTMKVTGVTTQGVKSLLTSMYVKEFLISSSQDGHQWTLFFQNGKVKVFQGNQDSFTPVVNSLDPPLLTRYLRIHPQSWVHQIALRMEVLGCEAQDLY
Text: (§4) The evaluation procedure used is that described in "Human Blood Coagulation, Haemostasis and Thrombosis", edited by Rosemary Biggs, published by Blackwell Scientific Publications, Oxford, England (2nd Edition), pages 670-705, 1976. […]

F X = target: T2, F X (Homo sapiens, UniProt P00742); experiment: Factor X assay, Example 4; assay type: biochemical; details: for F X: Control 78
T2 construct: from tissue; host or cells: human plasma
T2 sequence (P00742 41-488): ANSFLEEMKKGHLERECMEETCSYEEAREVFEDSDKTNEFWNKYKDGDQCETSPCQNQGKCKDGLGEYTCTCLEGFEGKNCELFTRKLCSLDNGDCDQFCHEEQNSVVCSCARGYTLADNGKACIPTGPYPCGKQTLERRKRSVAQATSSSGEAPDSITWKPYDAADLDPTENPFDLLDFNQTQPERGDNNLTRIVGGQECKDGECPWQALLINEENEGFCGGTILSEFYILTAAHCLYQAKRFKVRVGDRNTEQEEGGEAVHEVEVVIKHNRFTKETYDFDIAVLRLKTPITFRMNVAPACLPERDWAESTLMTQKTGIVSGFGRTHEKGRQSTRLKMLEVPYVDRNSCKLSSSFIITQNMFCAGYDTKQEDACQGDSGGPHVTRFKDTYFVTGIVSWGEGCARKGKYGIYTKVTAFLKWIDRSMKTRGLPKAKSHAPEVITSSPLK
Text: as §4

human plasma [2] = experiment: Thrombin Time, Example 4; assay type: biochemical; details: Control 12.00
Text: as §4

[3] = PT of coded and various agents, Example 6; assay type: biochemical
Text: as §1, §2, §3

blood = experiment: Storage of human blood samples with added sodium bisulphite solution; details: about 4 cc blood plus about 10 drops of 10 weight percent solution; about 2) years at ambient temperatures
Experimental: Samples of about 4 cc each of blood were prepared. To each of these was added about 10 drops of a 10 weight percent solution of sodium bisulphite in distilled water. Each sample was then sealed into a glass vial.

[4] = test system: human platelet-rich plasma; experiment: Platelet aggregometer, technique of Born, human platelet-rich plasma; assay type: cell-based; details: 1 millimole (mM), ADP, collagen, epinephrine and arachidonic acid
Text: In order to evaluate an antithrombotic effect, it is preferable to withdraw samples of blood from a patient undergoing treatment and measure platelet aggregation. One method is described by Born in Nature 194, pp. 927-929 (1962) and may be used for this purpose, if desired.
That sodium bisulphite is a platelet antiagregatory agent is shown by using a platelet aggregometer based on the technique of Born (above cited).

[5] = test system: human, rabbit and rat plasma; experiment: PT (prothrombin time) in plasma in vitro, Example 3; assay type: biochemical
Text: (§5) Sodium, potassium and ammonium bisulphites are found to prolong PT and PTT in a dose-related fashion.
(§6) The evaluation procedure used is that described in "Human Blood Coagulation, Haemostasis and Thrombosis", edited by Rosemary Biggs, published by Blackwell Scientific Publications, Oxford, England (2nd Edition), pages 670-705, 1976.

[6] = test system: platelet aggregation induced by adenosine diphosphate (ADP); details: rabbit blood, Kikugawa, cited from earlier work
human plasma [7] = experiment: Partial Thromboplastin Time, Example 4; assay type: biochemical
Text: as §4

human plasma [8] = experiment: Prothrombin Time, Example 4; assay type: biochemical
Text: as §4

[9] = test system: human, rabbit and rat plasma; experiment: PTT (partial thromboplastin time) in plasma in vitro, Example 3; assay type: biochemical; details: for PTT (seconds) Exp. 1 A / PTT (seconds) Exp. 2 A: active agent 0.5/ml, control
Text: as §5, §6

patients = experiment: Human use, case histories; assay type: in vivo
Text: To evaluate the effect of sodium bisulphite in human use (this agent being known to be safe for human consumption), certain patients received this agent. The case history and observations are summarized individually below.
In each case, each patient was provided with a bottle of Solution D, unless otherwise noted, and was instructed to dose himself (or herself, as the case may be) from the bottle so provided at the rate of seven drops to be taken orally with each of his (her) three daily meals. When the contents of one such bottle were thus gradually consumed by an individual patient, another was provided.

[10] = Sodium bisulphite 0.01 mg/ml, solution D
[11] = Sodium bisulphite 0.05 mg/ml, solution D
[12] = Sodium bisulphite 0.1 mg/ml, solution D
[13] = Sodium bisulphite 0.5 mg/ml, solution D
[14] = Sodium bisulphite 1.0 mg/ml, solution D
[15] = Sodium bisulphite 5.0 mg/ml, solution D
[16] = chemical grade sodium bisulphite 0.01 mg/ml
[17] = chemical grade sodium bisulphite 0.05 mg/ml
[18] = chemical grade sodium bisulphite 0.1 mg/ml
[19] = chemical grade sodium bisulphite 0.5 mg/ml
[20] = chemical grade sodium bisulphite 1.0 mg/ml
[21] = chemical grade sodium bisulphite 5.0 mg/ml
[22] = 0.5 mg/ml, human, rabbit and rat plasma in vitro, dose-related
[23] = Test sequence A, active agent 0.5/ml, control

Sodium bisulphite
PTT [1]: 114.80 s | F VIII (F VIII; [10]): 62% | F VIII (F VIII; [11]): 68% | F VIII (F VIII; [12]): 55% | F VIII (F VIII; [13]): 58% | F VIII (F VIII; [14]): 29% | F VIII (F VIII; [15]): 11% | F VIII (F VIII; [16]): 58 | F VIII (F VIII; [17]): 55 | F VIII (F VIII; [18]): 56 | F VIII (F VIII; [19]): 55 | F VIII (F VIII; [20]): 31 | F VIII (F VIII; [21]): 13 | effect on Factor VIII (F VIII; human plasma): mildly affected | effect on Factor X (F X; 0.5 mg per ml, human plasma): significant inhibitory effect | F X (F X; [10]): 73% | F X (F X; [11]): 68% | F X (F X; [12]): 66% | F X (F X; [13]): 31% | F X (F X; [14]): 11% | F X (F X; [15]): 3% | F X (F X; [16]): 80 | F X (F X; [17]): 69 | F X (F X; [18]): 66 | F X (F X; [19]): 22 | F X (F X; [20]): 6 | F X (F X; [21]): 4 | TT (human plasma [2]; [10]): 12.07 s | TT (human plasma [2]; [11]): 12.10 s | TT (human plasma [2]; [12]): 12.00 s | TT (human plasma [2]; [13]): 13.97 s | TT (human plasma [2]; [14]): 16.08 s | TT (human plasma [2]; [15]): 34.3 s | TT (human plasma [2]; [16]): 12.20 s | TT (human plasma [2]; [17]): 12.30 s | TT (human plasma [2]; [18]): 12.15 s | TT (human plasma [2]; [19]): 14.53 s | TT (human plasma [2]; [20]): 16.23 s | TT (human plasma [2]; [21]): 35.5 s | PT [3]: 22.42 s | PT ([3]; Table V, coded agents 0.5 mg/ml, Control 12.92): 23.06 s | coagulation of stored blood samples (blood): have not coagulated | platelet aggregation [4]: abolishes platelet aggregation | prolongation of PT [5, 22]: significantly prolong | PT (seconds) Exp. 1 A [5, 23]: 22.1 s | PT (seconds) Exp.2 A [5, 23]: 23.2 s | PT (seconds) Exp. 1 A ([5]; Test sequence B, active agent 0.5/ml, control): 25.5 s | inhibition of platelet aggregation induced by ADP ([6]; 1 mM): 9% | inhibition of platelet aggregation induced by ADP ([6]; 5 mM): 66% | inhibition of platelet aggregation induced by ADP ([6]; 10 mM): 69% | PTT (human plasma [7]; Sodium bisulphite 0.01 mg/ml, solution D, Control 12.20): 12.33 s | PTT (human plasma [7]; Sodium bisulphite 0.05 mg/ml, solution D, Control 12.20): 12.43 s | PTT (human plasma [7]; Sodium bisulphite 0.1 mg/ml, solution D, Control 12.20): 12.85 s | PTT (human plasma [7]; Sodium bisulphite 0.5 mg/ml, solution D, Control 12.20): 15.43 s | PTT (human plasma [7]; Sodium bisulphite 1.0 mg/ml, solution D, Control 12.20): 22.63 s | PTT (human plasma [7]; Sodium bisulphite 5.0 mg/ml, solution D, Control 12.20): >150 s | PTT (human plasma [7]; chemical grade sodium bisulphite 0.01 mg/ml, Control 34.67): 32.80 s | PTT (human plasma [7]; chemical grade sodium bisulphite 0.05 mg/ml, Control 34.67): 33.77 s | PTT (human plasma [7]; chemical grade sodium bisulphite 0.1 mg/ml, Control 34.67): 34.40 s | PTT (human plasma [7]; chemical grade sodium bisulphite 0.5 mg/ml, Control 34.67): 44.87 s | PTT (human plasma [7]; chemical grade sodium bisulphite 1.0 mg/ml, Control 34.67): 78.46 s | PTT (human plasma [7]; chemical grade sodium bisulphite 5.0 mg/ml, Control 34.67): >150 s | PT (human plasma [8]; Sodium bisulphite 0.01 mg/ml, solution D, Control 34.67): 33.37 s | PT (human plasma [8]; Sodium bisulphite 0.05 mg/ml, solution D, Control 34.67): 34.00 s | PT (human plasma [8]; Sodium bisulphite 0.1 mg/ml, solution D, Control 34.67): 34.85 s | PT (human plasma [8]; Sodium bisulphite 0.5 mg/ml, solution D, Control 34.67): 42.73 s | PT (human plasma [8]; Sodium bisulphite 1.0 mg/ml, solution D, Control 34.67): 85.33 s | PT (human plasma [8]; Sodium bisulphite 5.0 mg/ml, solution D, Control 34.67): >150 s | PT (human plasma [8]; chemical grade sodium bisulphite 0.01 mg/ml, Control 12.20): 12.30 s | PT (human plasma [8]; chemical grade sodium bisulphite 0.05 mg/ml, Control 12.20): 12.47 s | PT (human plasma [8]; chemical grade sodium bisulphite 0.1 mg/ml, Control 12.20): 12.90 s | PT (human plasma [8]; chemical grade sodium bisulphite 0.5 mg/ml, Control 12.20): 16.10 s | PT (human plasma [8]; chemical grade sodium bisulphite 1.0 mg/ml, Control 12.20): 22.38 s | PT (human plasma [8]; chemical grade sodium bisulphite 5.0 mg/ml, Control 12.20): >150 s | prolongation of PTT [9, 22]: significantly prolong | PTT (seconds) Exp. 1 A ([9]; Test sequence A): 128.2 s | PTT (seconds) Exp. 2 A ([9]; Test sequence A): 121.9 s | PTT (seconds) Exp. 1 A ([9]; Test sequence B): 128.2 s | PTT (seconds) Exp. 2 A ([9]; Test sequence B): 162.6 s | Case IV: blood cholesterol value (patients; after about 5 years, before between 200 and 220 mg %): about 144 mg % | Case IV: hypertension, arthritis, arrhythmia, haemorrhoids, dyspepsia, cyanotic fingers and toes, malaise (except diabetes) (patients; person, Solutions A, B, C or D orally, within 2-3 months): improved
